Data reported in ChEMBL document CHEMBL1221208, “ATP-competitive inhibitors of the mitotic kinesin KSP that function via an allosteric mechanism” (Nat Chem Biol, 2007).
The source made the active and inactive calls. No cut-off for these calls is given here.

Experiments:
[1] = molecular target: T1, Kinesin-like protein KIF11 (Homo sapiens) (UniProt P52732); assay: Inhibition of Eg5 at 10 uM by puruvate kinsase-lactate dehydrogenase detection system
T1 sequence (whole entry): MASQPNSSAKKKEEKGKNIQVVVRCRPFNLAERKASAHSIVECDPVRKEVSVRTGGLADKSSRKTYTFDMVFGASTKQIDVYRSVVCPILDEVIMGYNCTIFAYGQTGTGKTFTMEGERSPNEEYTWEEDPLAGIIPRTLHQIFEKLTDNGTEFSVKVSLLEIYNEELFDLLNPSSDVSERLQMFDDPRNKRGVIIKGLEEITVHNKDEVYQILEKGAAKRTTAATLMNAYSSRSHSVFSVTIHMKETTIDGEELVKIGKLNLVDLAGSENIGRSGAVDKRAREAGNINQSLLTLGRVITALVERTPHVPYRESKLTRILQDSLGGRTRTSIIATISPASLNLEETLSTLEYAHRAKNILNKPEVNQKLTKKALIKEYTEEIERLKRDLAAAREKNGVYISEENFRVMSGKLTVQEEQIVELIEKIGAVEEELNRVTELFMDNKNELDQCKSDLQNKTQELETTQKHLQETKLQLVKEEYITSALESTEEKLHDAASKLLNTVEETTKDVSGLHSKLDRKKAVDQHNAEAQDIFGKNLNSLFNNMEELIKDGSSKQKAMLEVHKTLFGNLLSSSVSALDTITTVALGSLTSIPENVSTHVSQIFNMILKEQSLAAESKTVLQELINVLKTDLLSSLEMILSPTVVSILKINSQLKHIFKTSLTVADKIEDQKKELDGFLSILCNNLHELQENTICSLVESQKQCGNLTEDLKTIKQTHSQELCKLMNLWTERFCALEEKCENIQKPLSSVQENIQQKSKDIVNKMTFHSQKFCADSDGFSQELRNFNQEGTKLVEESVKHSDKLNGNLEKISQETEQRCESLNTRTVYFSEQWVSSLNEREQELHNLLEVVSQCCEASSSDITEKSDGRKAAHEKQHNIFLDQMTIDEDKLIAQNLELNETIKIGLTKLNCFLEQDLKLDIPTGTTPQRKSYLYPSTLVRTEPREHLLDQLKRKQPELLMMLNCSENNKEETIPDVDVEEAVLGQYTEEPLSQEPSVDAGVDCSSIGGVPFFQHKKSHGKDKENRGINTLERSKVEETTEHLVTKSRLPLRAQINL

[2] = molecular target: T2, Chromosome-associated kinesin KIF4A (Homo sapiens) (UniProt O95239); assay: Inhibition of Kif4 at 10 uM by puruvate kinsase-lactate dehydrogenase detection system
T2 sequence (whole entry): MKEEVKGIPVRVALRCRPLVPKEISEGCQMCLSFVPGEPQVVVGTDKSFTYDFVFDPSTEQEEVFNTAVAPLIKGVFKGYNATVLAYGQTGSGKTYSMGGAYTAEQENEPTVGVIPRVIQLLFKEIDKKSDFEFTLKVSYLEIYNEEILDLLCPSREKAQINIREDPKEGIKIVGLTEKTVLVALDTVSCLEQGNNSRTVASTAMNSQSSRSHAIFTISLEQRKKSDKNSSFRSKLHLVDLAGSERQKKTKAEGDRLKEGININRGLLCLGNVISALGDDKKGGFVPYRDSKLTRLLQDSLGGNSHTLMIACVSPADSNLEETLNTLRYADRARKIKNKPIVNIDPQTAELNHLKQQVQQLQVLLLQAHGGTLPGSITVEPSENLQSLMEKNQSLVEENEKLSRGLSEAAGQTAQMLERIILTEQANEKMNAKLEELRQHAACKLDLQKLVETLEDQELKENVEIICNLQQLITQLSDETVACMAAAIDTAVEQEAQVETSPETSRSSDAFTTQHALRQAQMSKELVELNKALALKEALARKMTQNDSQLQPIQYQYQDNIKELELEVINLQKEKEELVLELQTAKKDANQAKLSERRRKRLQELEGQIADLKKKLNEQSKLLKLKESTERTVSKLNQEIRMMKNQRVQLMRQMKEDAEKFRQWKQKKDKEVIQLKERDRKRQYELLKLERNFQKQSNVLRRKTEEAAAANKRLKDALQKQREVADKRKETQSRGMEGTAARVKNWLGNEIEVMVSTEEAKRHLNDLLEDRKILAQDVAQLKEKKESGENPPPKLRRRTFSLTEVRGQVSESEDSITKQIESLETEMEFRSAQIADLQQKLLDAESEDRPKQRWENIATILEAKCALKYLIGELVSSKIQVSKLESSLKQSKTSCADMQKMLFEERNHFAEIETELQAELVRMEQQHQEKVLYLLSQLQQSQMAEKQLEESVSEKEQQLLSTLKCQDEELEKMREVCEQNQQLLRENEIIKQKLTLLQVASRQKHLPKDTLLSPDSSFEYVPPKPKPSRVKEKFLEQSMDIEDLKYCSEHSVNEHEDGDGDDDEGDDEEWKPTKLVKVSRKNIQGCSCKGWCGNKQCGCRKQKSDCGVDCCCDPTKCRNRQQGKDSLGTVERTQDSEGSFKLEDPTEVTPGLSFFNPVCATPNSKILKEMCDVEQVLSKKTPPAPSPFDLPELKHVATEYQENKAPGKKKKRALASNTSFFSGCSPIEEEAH

[3] = molecular target: T3, Kinesin-like protein KIF11 (Homo sapiens, UniProt P52732); assay: Inhibition of human wild type Eg5 using varying ATP levels in presence of saturating levels of microtubule by Lineweaver-Burke plot
T3 sequence (P52732 whole entry): T1 sequence (whole entry)

Homo sapiens = species: Homo sapiens; assay: Competitive inhibition of human KSP KHC-L5 mutant with respect to ATP using varying ATP levels in presence of saturating levels of microtubule by Lineweaver-Burke plot
[4] = molecular target: T1, Kinesin-like protein KIF11 (Homo sapiens); assay: Competitive inhibition of human wild type Eg5 with respect to ATP using varying ATP levels in presence of saturating levels of microtubule by Lineweaver-Burke plot
[5] = molecular target: Kinesin-like protein KIF11 (Homo sapiens, UniProt P52732, A133D); assay: Inhibition of human KSP A133D mutant using varying ATP levels in presence of saturating levels of microtubule by Lineweaver-Burke plot
Sequence of Kinesin-like protein KIF11 (Homo sapiens, UniProt P52732, A133D) (P52732 whole entry A133D): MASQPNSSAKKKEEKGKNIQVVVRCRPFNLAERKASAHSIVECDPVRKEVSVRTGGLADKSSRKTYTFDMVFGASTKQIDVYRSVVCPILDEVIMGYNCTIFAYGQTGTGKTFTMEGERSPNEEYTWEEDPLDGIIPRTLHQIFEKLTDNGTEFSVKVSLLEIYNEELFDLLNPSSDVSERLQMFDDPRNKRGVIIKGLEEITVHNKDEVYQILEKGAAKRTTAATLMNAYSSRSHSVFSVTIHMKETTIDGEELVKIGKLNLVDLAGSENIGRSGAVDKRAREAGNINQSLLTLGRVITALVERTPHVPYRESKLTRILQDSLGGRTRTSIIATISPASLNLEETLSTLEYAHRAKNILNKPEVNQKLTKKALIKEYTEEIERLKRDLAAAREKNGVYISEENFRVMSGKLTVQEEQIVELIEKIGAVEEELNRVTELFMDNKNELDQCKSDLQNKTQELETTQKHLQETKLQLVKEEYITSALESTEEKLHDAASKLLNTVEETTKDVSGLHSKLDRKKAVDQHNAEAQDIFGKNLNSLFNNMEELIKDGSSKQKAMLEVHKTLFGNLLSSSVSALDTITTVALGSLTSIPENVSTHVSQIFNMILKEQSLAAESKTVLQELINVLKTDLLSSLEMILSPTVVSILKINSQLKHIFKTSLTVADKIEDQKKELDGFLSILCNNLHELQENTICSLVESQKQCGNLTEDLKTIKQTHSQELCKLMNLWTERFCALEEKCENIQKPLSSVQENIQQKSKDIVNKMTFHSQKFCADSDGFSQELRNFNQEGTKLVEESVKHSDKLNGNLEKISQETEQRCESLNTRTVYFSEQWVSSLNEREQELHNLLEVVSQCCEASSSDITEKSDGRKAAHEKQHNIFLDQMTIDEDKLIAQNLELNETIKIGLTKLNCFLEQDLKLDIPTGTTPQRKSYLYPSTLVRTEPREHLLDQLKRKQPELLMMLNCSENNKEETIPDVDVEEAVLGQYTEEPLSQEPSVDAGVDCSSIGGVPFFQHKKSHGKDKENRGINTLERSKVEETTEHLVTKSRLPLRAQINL

| SMILES | inhibition [1] [%] | inhibition [2] [%] | Ki [3] [nM] | inhibition (Homo sapiens) | inhibition [4] | Ki [5] [nM] |
| --- | --- | --- | --- | --- | --- | --- |
| Cc1ccc(C(=O)N(CCCN)[C@@H](c2nc3cc(Cl)ccc3c(=O)n2Cc2ccccc2)C(C)C)cc1 | 99.6 | 4.3 | – | – | – | – |
| O=C1CCc2cc(-c3ccc(C(F)(F)F)cc3)ccc2N1 | 99.3 | 6.5 | 1.8 | Active | Active | 1.4 |
| NC(=O)Nc1ccc(-c2ccc(C(F)(F)F)cc2)cc1F | 99.4 | 8.2 | 8.8 | Active | Active | 6.8 |
